Assay results taken from ChEMBL document CHEMBL1201862, “PubChem BioAssay data set” (2004).
Active and inactive are the calls of the source.

Assays:
Escherichia coli = experiment: microbe, parasite or virus in culture
[1] = target: Delta-type opioid receptor (Homo sapiens, UniProt P41143); experiment: Counterscreen for agonists of heterodimerization of the mu 1 (OPRM1) and delta 1 (OPRD1) opioid receptors: Luminescence-based cell-based high throughput dose response assay to identify agonists of OPRD1 homodimerization. [Related pubchem assays (depositor defined):AID504326, AID504355, AID504692, AID504904, AID504905]; type: functional
Delta-type opioid receptor, sequence (P41143 whole entry): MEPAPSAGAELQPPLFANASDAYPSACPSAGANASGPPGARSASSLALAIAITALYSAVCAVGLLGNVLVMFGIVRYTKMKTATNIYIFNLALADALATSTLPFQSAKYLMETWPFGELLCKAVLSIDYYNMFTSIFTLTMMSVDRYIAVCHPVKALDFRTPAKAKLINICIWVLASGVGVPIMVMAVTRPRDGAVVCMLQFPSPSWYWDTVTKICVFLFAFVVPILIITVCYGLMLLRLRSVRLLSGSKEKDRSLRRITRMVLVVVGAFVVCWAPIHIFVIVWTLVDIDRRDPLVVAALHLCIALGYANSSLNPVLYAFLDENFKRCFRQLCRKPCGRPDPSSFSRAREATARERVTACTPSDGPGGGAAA

[2] = NIH-3T3 fibroblast cytotoxicity, dose response, cytotoxicity control, cell-based, fluorescence, Alamar Blue, secondary assay (AID 2327); type: functional;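 further: NIH-3T3 mouse fibroblasts cultured with fluconazole at 8 µg/mL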
[3] = fluconazole-exposed Candida albicans growth modulators – fluorescence, retest, confirmation (AID 2467); type: functional, cell-based
Mu-type opioid receptor = Mu-type opioid receptor (Homo sapiens, UniProt P35372); experiment: Counterscreen for agonists of heterodimerization of the mu 1 (OPRM1) and delta 1 (OPRD1) opioid receptors: Luminescence-based cell-based high throughput dose response assay to identify agonists of OPRM1 homodimerization.; type: functional;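 further: U2OS cells expressing OPRM1 and beta-arrestin as split beta-galactosidase partners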
Mu-type opioid receptor, sequence (P35372 whole entry): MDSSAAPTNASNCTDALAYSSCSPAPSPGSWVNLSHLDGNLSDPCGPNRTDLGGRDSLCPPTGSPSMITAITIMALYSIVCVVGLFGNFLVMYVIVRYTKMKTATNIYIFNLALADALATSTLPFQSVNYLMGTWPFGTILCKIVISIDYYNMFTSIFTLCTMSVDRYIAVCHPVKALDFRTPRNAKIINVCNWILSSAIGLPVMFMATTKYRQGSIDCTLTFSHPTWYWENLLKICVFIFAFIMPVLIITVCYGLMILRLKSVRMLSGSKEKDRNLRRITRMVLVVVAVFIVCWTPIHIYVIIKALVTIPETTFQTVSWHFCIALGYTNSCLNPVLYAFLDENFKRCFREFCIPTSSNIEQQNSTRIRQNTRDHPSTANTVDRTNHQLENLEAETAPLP

[4] = microbe, parasite or virus in culture; type: functional; details: Mycobacterium tuberculosis
[5] = target: 5-hydroxytryptamine receptor 5A (Homo sapiens, UniProt P47898); experiment: Counterscreen for agonists of OPRM1-OPRD1 heterodimerization: luminescence-based cell-based high throughput dose response assay to identify agonists of 5-hydroxytryptamine (serotonin) 5A receptor (HTR5A). [Related pubchem assays (depositor defined):AID504326, AID504355, AID504692, AID504904, AID504905]; type: functional
5-hydroxytryptamine receptor 5A, sequence (P47898 whole entry): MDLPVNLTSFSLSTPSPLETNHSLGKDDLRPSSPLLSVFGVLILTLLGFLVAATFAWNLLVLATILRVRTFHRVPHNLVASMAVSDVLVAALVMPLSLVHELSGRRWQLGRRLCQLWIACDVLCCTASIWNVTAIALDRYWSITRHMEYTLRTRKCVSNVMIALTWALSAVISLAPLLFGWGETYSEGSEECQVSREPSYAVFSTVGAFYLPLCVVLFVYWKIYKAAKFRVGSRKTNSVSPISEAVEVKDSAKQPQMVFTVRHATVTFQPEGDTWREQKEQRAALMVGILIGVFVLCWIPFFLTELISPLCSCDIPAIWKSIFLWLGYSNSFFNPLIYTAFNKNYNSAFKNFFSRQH

HEK293 [6] = experiment: cells; details: Homo sapiens
Mucolipin-3 = target: T1, Mucolipin-3 (Homo sapiens, UniProt Q8TDD5); experiment: Dose response cell-based high-throughput screening assay for agonists of the transient receptor potential channel ML3 (TRPML3). [Related pubchem assays: 1526, 1424, 1448 ]; type: functional
T1 sequence (Q8TDD5 whole entry): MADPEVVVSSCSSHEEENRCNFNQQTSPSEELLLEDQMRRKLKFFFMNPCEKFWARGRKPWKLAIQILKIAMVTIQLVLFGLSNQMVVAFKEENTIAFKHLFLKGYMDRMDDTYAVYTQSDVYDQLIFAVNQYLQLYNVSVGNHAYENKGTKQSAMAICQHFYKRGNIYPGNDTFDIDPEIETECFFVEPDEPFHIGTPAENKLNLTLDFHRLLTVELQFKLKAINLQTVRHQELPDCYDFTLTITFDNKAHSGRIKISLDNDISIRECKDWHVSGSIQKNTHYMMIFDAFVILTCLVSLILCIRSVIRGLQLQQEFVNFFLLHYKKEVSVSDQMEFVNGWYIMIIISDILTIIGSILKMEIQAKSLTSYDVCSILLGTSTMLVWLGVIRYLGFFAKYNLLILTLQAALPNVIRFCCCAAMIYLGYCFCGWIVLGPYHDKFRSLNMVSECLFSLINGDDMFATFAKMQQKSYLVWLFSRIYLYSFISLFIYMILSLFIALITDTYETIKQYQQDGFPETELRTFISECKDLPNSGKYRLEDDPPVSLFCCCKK

HEK293 [7] = experiment: cells; details: Homo sapiens; remark: listed apart in the source
Ion channel NompC = Ion channel NompC (Danio rerio, UniProt Q7T1G6); experiment: Fluorescence counterscreen assay for TRPML3 agonists: dose response cell-based high-throughput screening assay to identify agonists of the transient receptor potential channel N1 (TRPN1). [Related pubchem assays: 1526, 1424, 1448 ]; type: functional
Ion channel NompC, sequence (Q7T1G6 whole entry): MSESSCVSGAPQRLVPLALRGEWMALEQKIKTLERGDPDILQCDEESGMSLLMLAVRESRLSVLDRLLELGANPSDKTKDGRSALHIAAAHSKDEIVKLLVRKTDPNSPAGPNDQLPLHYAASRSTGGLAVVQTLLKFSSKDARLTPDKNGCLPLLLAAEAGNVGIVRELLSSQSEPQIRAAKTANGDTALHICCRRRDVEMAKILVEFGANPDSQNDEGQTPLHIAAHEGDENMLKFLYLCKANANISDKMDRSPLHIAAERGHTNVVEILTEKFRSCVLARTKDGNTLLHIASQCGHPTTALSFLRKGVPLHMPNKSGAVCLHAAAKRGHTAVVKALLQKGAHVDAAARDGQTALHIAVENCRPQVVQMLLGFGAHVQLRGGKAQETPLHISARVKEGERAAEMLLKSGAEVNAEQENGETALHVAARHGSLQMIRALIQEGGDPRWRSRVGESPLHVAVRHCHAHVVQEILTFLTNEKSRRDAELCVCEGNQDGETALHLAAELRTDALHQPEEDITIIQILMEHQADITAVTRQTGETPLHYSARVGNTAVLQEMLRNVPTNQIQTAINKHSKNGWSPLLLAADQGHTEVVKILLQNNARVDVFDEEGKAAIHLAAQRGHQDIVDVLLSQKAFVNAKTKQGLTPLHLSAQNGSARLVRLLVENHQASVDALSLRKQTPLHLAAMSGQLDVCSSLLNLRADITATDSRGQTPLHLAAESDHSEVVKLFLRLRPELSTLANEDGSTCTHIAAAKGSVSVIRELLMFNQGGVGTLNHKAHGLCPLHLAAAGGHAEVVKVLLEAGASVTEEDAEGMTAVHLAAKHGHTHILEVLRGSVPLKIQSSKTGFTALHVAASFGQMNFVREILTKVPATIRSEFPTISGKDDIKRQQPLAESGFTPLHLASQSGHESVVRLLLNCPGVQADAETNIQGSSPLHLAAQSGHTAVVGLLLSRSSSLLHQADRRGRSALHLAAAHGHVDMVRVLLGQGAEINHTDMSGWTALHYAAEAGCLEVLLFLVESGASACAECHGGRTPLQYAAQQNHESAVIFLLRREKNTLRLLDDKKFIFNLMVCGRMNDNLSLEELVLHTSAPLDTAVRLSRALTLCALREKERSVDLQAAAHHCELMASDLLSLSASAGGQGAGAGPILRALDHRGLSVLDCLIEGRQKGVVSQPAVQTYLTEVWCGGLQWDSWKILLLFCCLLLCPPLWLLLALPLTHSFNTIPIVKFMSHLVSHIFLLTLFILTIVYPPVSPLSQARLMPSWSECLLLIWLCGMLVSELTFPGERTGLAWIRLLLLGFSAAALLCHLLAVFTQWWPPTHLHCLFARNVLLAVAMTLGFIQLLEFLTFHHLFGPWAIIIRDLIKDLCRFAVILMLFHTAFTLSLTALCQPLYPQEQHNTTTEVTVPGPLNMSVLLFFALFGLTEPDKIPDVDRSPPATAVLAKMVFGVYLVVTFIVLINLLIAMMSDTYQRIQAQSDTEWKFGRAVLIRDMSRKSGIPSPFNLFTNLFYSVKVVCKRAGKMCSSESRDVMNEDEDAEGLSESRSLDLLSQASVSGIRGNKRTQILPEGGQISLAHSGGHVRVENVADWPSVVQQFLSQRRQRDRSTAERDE

[8] = DRD fibroblast viability loss – cell-based, non-viral oncogenic, luminescence, dose response (AID 1934); type: functional; details: Homo sapiens
[9] = luciferase reporter signal suppression in cells – H4 neuroglioma cells, luminescence, dose response (AID 1990); type: functional, cell-based
BJ [10] = experiment: growth inhibition of engineered Ras-driven BJ cells – cell-based, alamar blue fluorescence, cherrypicked samples, dose response (AID 2631); type: functional; details: Homo sapiens;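 further: confirmatory dose-response assay in RAS-dependent BJ fibroblasts engineered with TERT, LT and ST, with cytotoxicity read by fluorescence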
[11] = Luminescence Cell-Based Dose Response HTS to Identify Inhibitors of 5'UTR Stem-Loop Driven Prion Protein mRNA Translation in H4 Neuroglioblastoma Cells. [Related pubchem assays: 1827 (Project Summary), 1813 (Primary HTS)]; type: functional
BJ [12] = experiment: cells; type: functional, cell-based; details: Homo sapiens
[13] = reduced cellular PGC1a acetyl-lysine signal – cell-based, cherry-picked samples, dose response (AID 720514); type: functional;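 further: potency may reflect raised or lowered acetylation signal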
[14] = alpha-synuclein stem-loop luciferase translation blockers – H4 neuroglioma cells, luminescence, confirmation (AID 1988); type: functional, cell-based
BJ [15] = experiment: BJ-TERT-LT-ST fibroblast viability loss – cell-based, RAS-independent, luminescence, dose response (AID 1935); type: functional; details: Homo sapiens;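 further: BJ fibroblasts immortalized with TERT plus LT and ST oncogenes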
INS1 = experiment: INS-1E survival protection against cytokine death – cell-based, luminescence, retest, dose response (AID 449756); type: functional; details: Rattus norvegicus;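 further: cell death triggered by IL-1 beta plus TNF-alpha plus IFN-gamma mixture; protective hits raise ATP signal compared with cytokine alone wells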
BJ [16] = experiment: BJ-TERT fibroblast viability loss – cell-based, RAS-independent, luminescence, dose response (AID 1933); type: functional; details: Homo sapiens
[17] = target: T2, Ubiquitin-conjugating enzyme E2 N (Homo sapiens, UniProt P61088); type: functional;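 further: Dose-response confirmation in a TR-FRET assay detecting UBC13-driven polyubiquitin chain formation, inhibition measured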
T2 sequence (P61088 whole entry): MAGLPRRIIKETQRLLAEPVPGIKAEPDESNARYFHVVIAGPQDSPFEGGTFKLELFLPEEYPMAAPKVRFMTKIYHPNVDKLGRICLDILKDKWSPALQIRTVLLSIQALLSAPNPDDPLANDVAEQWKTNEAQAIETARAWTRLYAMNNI

[18] = target: Beta-2 adrenergic receptor (Homo sapiens, UniProt P07550); experiment: ADRB2 activation measured by internalization – cell-based, FAP fluorogen, flow cytometry, cherry pick 1, dose response (AID 588763); type: functional
Beta-2 adrenergic receptor, sequence (P07550 whole entry): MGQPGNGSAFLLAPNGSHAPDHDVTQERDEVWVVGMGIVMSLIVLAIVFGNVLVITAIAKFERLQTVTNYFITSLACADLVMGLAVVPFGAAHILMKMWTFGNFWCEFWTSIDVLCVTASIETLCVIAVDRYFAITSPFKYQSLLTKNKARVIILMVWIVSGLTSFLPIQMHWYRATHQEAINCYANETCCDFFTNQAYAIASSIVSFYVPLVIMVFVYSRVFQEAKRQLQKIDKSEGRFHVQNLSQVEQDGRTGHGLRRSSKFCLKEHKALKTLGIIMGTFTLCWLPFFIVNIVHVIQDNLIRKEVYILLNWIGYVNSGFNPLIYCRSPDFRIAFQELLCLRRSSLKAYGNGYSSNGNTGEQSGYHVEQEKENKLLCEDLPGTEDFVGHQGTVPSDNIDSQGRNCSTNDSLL

O=C(Cn1ccc(C(F)(F)F)n1)Nc1ccc(S(=O)(=O)NCc2ccco2)cc1
AC50 (Escherichia coli): 38.6 µM (active)

Cn1c(-c2c(N)n(CCc3ccccc3)c3nc4ccccc4nc23)nc2ccccc21
EC50 [1]: > 92.5 µM (inactive)
EC50 [2]: > 160 µM (inactive)
EC50 [3]: > 38 µM (not active)
EC50 (Mu-type opioid receptor): 24.8 µM (inactive)
CC50 [4]: > 40 µM (active)
EC50 [5]: > 92.5 µM (inactive)

COc1cc(NC(=O)C2CC(=O)NC3=C2C(=O)CC(C)(C)C3)c(OC)cc1Cl (configuration not stated)
AC50 (Escherichia coli): 24.1 µM (active)

COc1ccc(C(C)(C)C)cc1NC(=O)c1cc(S(=O)(=O)N(C)C)ccc1N1CCCC1
EC50 (HEK293 [6]): > 59.6 µM (inactive)
EC50 (Mucolipin-3): > 29.9 µM (not active)
EC50 (HEK293 [7]): > 59.6 µM (inactive)
EC50 (Ion channel NompC): > 29.9 µM (not active)

CNC[C@@H](Cc1ccccc1)NC[C@@H](CC1CCCCC1)NCCCc1ccccc1
EC50 [8]: 5.08 µM (active)
EC50 [9]: 7.68 µM (active)
EC50 (BJ [10]): 0.532 µM (inconclusive)
EC50 [11]: > 120 µM (not active)
EC50 [2]: 4.94 µM (inconclusive)
EC50 [3]: > 38 µM (not active)
EC50 (BJ [12]): 5.13 µM (inconclusive)
AC50 [13]: 5.06 µM (active)
EC50 [14]: 4.29 µM (active)
CC50 [4]: 5.76 µM (active)
EC50 (BJ [15]): 5.72 µM (inconclusive)
AC50 (INS1): 6.49 µM (active)
EC50 (BJ [16]): 5 µM (active)
IC50 [17]: > 20 µM (inactive)

CC(=O)Nc1ccc(-c2nnc(SCc3ccc(C)cc3)n2C)cc1
EC50 [18]: 3.6 µM (active)
